Values quoted from earlier work in patent publication US20220265566A1, “ATOVAQUONE NANOPARTICULATE COMPOSITIONS” (Tulex Pharmaceuticals Inc., priority 2018, published 2022).

For `O=C1C(O)=C([C@H]2CC[C@H](c3ccc(Cl)cc3)CC2)C(=O)c2ccccc21` [ATQ, trans-2-[4-(4-chlorophenyl)cyclohexyl]-3-hydroxy-1,4-naphthalenedione], the Solubility in water is listed as “practically insoluble in water”.
